Data on 25 molecules can be found in patent US20040010036A1, “N,N, -Substituted s-Aryl-Isothioureas, N,N,N, -Substituted s-Aryl-Isothioureas and combinatorial libraries thereof” (priority 2002, published 2004).

In this assay the test system is Streptococcus pyogenes (ATCC# 97-03 14289). The assay can be described thus: Anti-microbial screen (percent inhibition of growth, OD 570 nm). The format is cell-based. As to conditions: Conc 0.1776 mg ml. On the procedure:
Streptococcus pyogenes (ATCC# 97-03 14289) was grown in Todd Hewitt Broth (THB) (Difco Laboratories #0492-17-6) overnight until reaching an optical density of (OD=0.636@570 nm) by reading 0.1 ml in a 96 well microtiter plate in a Molecular Devices Thermomax. This preparation was kept frozen as stocks in 30% v/v glycerol in 1.5 ml aliquots at […] until use. Prior to experiments, 6 ml aliquots were thawed and diluted into 50 ml 2×THB. 60 ul of this dilution was added to 92 wells of microtiter plate. To three wells THB (200 ul) was added to serve as a blank and a sterility control. Test compounds in DMSO and appropriate concentrations of DMSO were added to Growth/Solvent Controls at 0 time. Plates were read at 0 time at 570 nm in the Molecular Devices plate reader to obtain compounds correction factors for insoluble or colored compounds. Plates were read again at 4 hours.
Percent inhibition is calculated with the following formula:
Color correct=O.D. 0 hr - Blank 0 hr)-(Solvent Control Ohr - Blank 0 hr) [formula]

Setting [1] is: Streptococcus pyogenes, Assay Spy4H, plates read at 570 nm at 0 time and at 4 hours.
Where [2] appears, read: Spy4H: Streptococcus pyogenes, read at 4 hours, OD 570 nm.

In general, inhibition of growth refers to the relative decrease from the control value, in per cent. A low value points to a response near the control.

Take `COc1cccc(CN(Cc2ccc(O)cc2)/C(=N/c2ccc(Cl)c([N+](=O)[O-])c2)Sc2cccc(OC)c2)c1` [Cmpd 783]: at 177.6 µg/mL the inhibition of growth under setting [1] was 54.5%. Still for that read-out and setting: in the case of `COc1cccc(CN(Cc2ccc(O)cc2)/C(=N\c2ccc(Cl)c(C(F)(F)F)c2)Sc2cccc(OC)c2)c1` [Cmpd 793] it was 52.4%. `COc1cccc(CCN(Cc2cccc(O)c2)/C(=N/c2ccc(F)c(Cl)c2)Sc2ccccc2)c1` [Cmpd 814] came in with an inhibition of growth at 177.6 µg/mL under setting [2] of 57.8%. Under setting [1], `Cc1cccc(C/N=C(\Sc2ccccc2)N(Cc2cccc(O)c2)Cc2ccc(Cl)c(Cl)c2)c1` [Cmpd 842] gave an inhibition of growth at 177.6 µg/mL of 49.3%. Under setting [1], `Oc1cccc(CN(Cc2ccc(Cl)c(Cl)c2)/C(=N/c2cccc(F)c2)Sc2ccccc2)c1` [Cmpd 843] returned an inhibition of growth at 177.6 µg/mL of 53.4%. `Oc1cccc(CN(Cc2ccc(Cl)c(Cl)c2)/C(=N/c2cccc(C(F)(F)F)c2)Sc2ccccc2)c1` [Cmpd 846]: under setting [1], 177.6 µg/mL produced 49.3% inhibition of growth. Under setting [2], `Oc1cccc(CN(Cc2ccc(Cl)c(Cl)c2)/C(=N/c2ccc(C(F)(F)F)cc2)Sc2ccccc2)c1` [Cmpd 847] yielded an inhibition of growth at 177.6 µg/mL of 90.3%. `Oc1cccc(CN(Cc2ccc(Cl)c(Cl)c2)/C(=N/c2cccc(Cl)c2)Sc2ccccc2)c1` [Cmpd 852] registered an inhibition of growth at 177.6 µg/mL under setting [1] of 50%. As for `Oc1cccc(CN(Cc2ccc(Cl)c(Cl)c2)/C(=N/c2cc(Cl)cc(Cl)c2)Sc2ccccc2)c1` [Cmpd 853], under setting [2], the inhibition of growth at 177.6 µg/mL was found to be 60.2%.

On to `Oc1cccc(CN(Cc2ccc(Cl)c(Cl)c2)/C(=N/c2ccc(F)c(Cl)c2)Sc2ccccc2)c1` [Cmpd 854], for which the inhibition of growth at 177.6 µg/mL under setting [1] was determined as 55.8%.

As for `O=[N+]([O-])c1ccccc1/N=C(\Sc1ccccc1)N(Cc1cccc(O)c1)Cc1ccc(Cl)c(Cl)c1` [Cmpd 866], under setting [2], the inhibition of growth at 177.6 µg/mL was found to be 60.8%. As for `COc1ccc(C)cc1/N=C(\Sc1ccccc1)N(Cc1cccc(O)c1)Cc1ccc(Cl)c(Cl)c1` [Cmpd 869], under setting [2], the inhibition of growth at 177.6 µg/mL amounted to 62.2%. For `COc1cccc(CCN(Cc2ccc(O)cc2)/C(=N/c2ccc(F)c(Cl)c2)Sc2ccccc2)c1` [Cmpd 894], the inhibition of growth at 177.6 µg/mL under setting [2] worked out at 57.7%. Still for that read-out and setting: in the case of `COc1cccc(CCN(Cc2ccc(O)cc2)/C(=N/c2ccc(Cl)c([N+](=O)[O-])c2)Sc2ccccc2)c1` [Cmpd 903] it was 95.7%. The same measure, in the same setting: in the case of `COc1cccc(S/C(=N\Cc2cccc(C)c2)N(CCc2ccc(F)cc2)Cc2cccc(O)c2)c1` [Cmpd 922] it was 84.3%. In turn, `COc1cccc(S/C(=N\c2cccc(F)c2)N(CCc2ccc(F)cc2)Cc2cccc(O)c2)c1` [Cmpd 923] yielded an inhibition of growth at 177.6 µg/mL under setting [2] of 63.9%. On to `COc1cccc(S/C(=N\c2cccc(C(F)(F)F)c2)N(CCc2ccc(F)cc2)Cc2cccc(O)c2)c1` [Cmpd 926], for which, under setting [2], 177.6 µg/mL produced 96% inhibition of growth. Molecule `COc1cccc(S/C(=N\c2ccc(C(F)(F)F)cc2)N(CCc2ccc(F)cc2)Cc2cccc(O)c2)c1` [Cmpd 927] displayed an inhibition of growth at 177.6 µg/mL under setting [1] of 49.4%.

Take `COc1cccc(S/C(=N\c2cc(Cl)cc(Cl)c2)N(CCc2ccc(F)cc2)Cc2cccc(O)c2)c1` [Cmpd 933]: under setting [2], the inhibition of growth at 177.6 µg/mL worked out at 59.8%.

`COc1cccc(S/C(=N\c2ccc(F)c(Cl)c2)N(CCc2ccc(F)cc2)Cc2cccc(O)c2)c1` [Cmpd 934]: under setting [2], testing at 177.6 µg/mL gave an inhibition of growth of 94%. On the same count and under the same terms, in the case of `COc1cccc(S/C(=N\c2ccc(C)c(Cl)c2)N(CCc2ccc(F)cc2)Cc2cccc(O)c2)c1` [Cmpd 935] it was 66.3%. For `COc1cccc(/N=C(\Sc2cccc(OC)c2)N(CCc2ccc(F)cc2)Cc2cccc(O)c2)c1` [Cmpd 936], under setting [1], the inhibition of growth at 177.6 µg/mL was found to be 56.3%. Still for that read-out and setting: in the case of `COc1cccc(S/C(=N\c2ccc(Cl)c([N+](=O)[O-])c2)N(CCc2ccc(F)cc2)Cc2cccc(O)c2)c1` [Cmpd 943] it was 50.8%; in that of `COc1cccc(S/C(=N/c2ccc(Cl)c(C(F)(F)F)c2)N(CCc2ccc(F)cc2)Cc2cccc(O)c2)c1` [Cmpd 953], 54.2%. With `COCCN(Cc1ccc(O)cc1)/C(=N\c1cc(Cl)cc(Cl)c1)Sc1ccc(C)cc1C` [Cmpd 1053], testing at 177.6 µg/mL under setting [2] gave an inhibition of growth of 66%.
